In general, AUC refers to the area under the concentration-time curve, a measure of exposure. A word on the Cmax: it is the peak of the concentration-time curve. The term AUC(0-inf) denotes the area under the concentration-time curve extrapolated to infinity.

Series [1] is described as follows: In vitro dissolution test of Drug 1 compositions in MFDS solution (concentration enhancement). The class given is physicochemical. Particulars: for AUC90 / Cmax9O: Drug 1, MFDS pH 6.5, 37° C., first 90 min; for AUC / Drug 1 Concentration: MFDS pH 6.5, 37° C. The text has this: In conducting such a dissolution test, the amount of test composition used is an amount such that if all of the drug dissolved, the drug concentration would be at least 2-fold to 100-fold or more than that of the equilibrium concentration of the drug. The concentration of dissolved drug is typically measured as a function of time by sampling the test medium and plotting drug concentration in the test medium vs. time so that the MDC and/or AUC can be ascertained.
To avoid drug particulates greater than about 0.4 to 1.0 μm in size being present in the solution assayed, which would give an erroneous determination, the test solution is either filtered or centrifuged. “Dissolved drug” is typically taken as that material that either passes a 0.45 μm syringe filter or, alternatively, the material that remains in the supernatant following centrifugation. Filtration can be conducted using a 13 mm, 0.45 μm polyvinylidine difluoride syringe filter sold by Scientific Resources under the trademark TITAN®. Centrifugation is typically carried out in a polypropylene microcentrifuge tube by centrifuging at 13,000 G for 60 seconds. Other similar filtration or centrifugation methods can be employed and useful results obtained. For example, using other types of microfilters may yield values somewhat higher or lower (by about 10-40%) than that obtained with the filter specified above but will still allow identification of preferred compositions. It is recognized that this definition of “dissolved drug” encompasses not only monomeric solvated drug molecules but also a wide range of species such as polymer/drug assemblies that have submicron dimensions such as drug aggregates, aggregates of mixtures of polymer and drug, micelles, polymeric micelles, colloidal particles or nanocrystals, polymer/drug complexes, and other such drug-containing species that are present in the filtrate or supernatant in the specified dissolution test.
For these tests, samples containing 0.72 mg of Example 1B, 0.36 mg of either Control 1C or 1D, or 0.72 mg of Control 1E were separately added to microcentrifuge tubes. The tubes were placed in a 37° C. temperature-controlled chamber, and 1.8 mL MFDS solution at pH 6.5 was added. The contents of the tubes were quickly mixed using a vortex mixer for about 60 seconds. The tubes were then centrifuged at 13,000 G at 37° C. for 1 minute. The supernatant was sampled and diluted 1:6 (by volume) with methanol and then analyzed by high-performance liquid chromatography (HPLC). Drug 1 was analyzed by HPLC using a Waters Symmetry C18 column. The mobile phase consisted of 0.3 vol % glacial acetic acid, 0.2 vol % triethylamine in HPLC water/acetonitrile in a volume ratio of 50/50. Drug concentration was calculated by comparing UV absorbance at 260 nm to the absorbance of Drug 1 standards.
The contents of the tubes were then again mixed on the vortex mixer and allowed to stand undisturbed at 37° C. until the next sample was taken. Samples of the tubes were collected at 4, 10, 20, 40, 90, and 1200 minutes.

A short description of series [2]: In vivo test of Drug 1 compositions, oral powder for constitution, plasma Drug 1. Particulars: male beagle dogs, oral gavage, 10 mgA/kg Drug 1, plasma. Here is the method:
The composition of Example 1B was used as an oral powder for constitution (OPC) for evaluating the performance of the composition in in vivo tests using male beagle dogs. The OPC was dosed as a suspension in a solution containing 0.5 wt % Methocel® (Dow Chemical Co.), and was prepared as follows. First, 5.0130 g of Methocel® was weighed out and added slowly to approximately 200 ml of water at 60° C. to form a Methocel® suspension. After all the Methocel® was added, the suspension was placed in a beaker of ice water. Next, 800 ml of chilled water was added with stirring. A 702.7 mg sample of Example 1B was weighed into a mortar. A drop of the Methocel® suspension was added to the mortar and the drug mixture was ground with a pestle. Additional Methocel® suspension was added gradually with grinding until a pourable suspension was obtained. The suspension was then transferred to a vial. The mortar and pestle were washed with the remaining Methocel® suspension. A total of 350 ml of Methocel® suspension was added to the Example 1B sample.
Six male beagle dogs were dosed with samples of Example 1B. Sufficient amounts of the OPC were dosed such that each dog received 10 mgA/kg of Drug 1 (where “A” refers to active drug). The dogs were fed 1 can of liquid diet the day prior to the study. On the day of the study, the dogs were dosed with the OPC using a gavage tube and a syringe. Whole blood samples of 6 ml were taken from the jugular vein using a plasma vacutainer containing sodium heparin with a 20 gauge needle at 0, ½, 1, 2, 3, 4, 6, 8, and 24 hours post dosing. Samples were spun in a refrigerated (5° C.) centrifuge at 3000 rpm for 5 minutes. The resultant plasma samples were poured into 2 ml cryogenic plastic tubes and stored in a freezer (−20° C.) within ½ hour post sampling time. Samples were then analyzed for Drug 1 using an HPLC method.
A similar method was used to dose the dogs with samples of Control 1B, Control 1C, and Control 1D. A washout period of at least 1 week was used between dosing of the various compositions.

Series [3] can be described thus: In vitro dissolution test of Drug 2 compositions in MFDS solution (concentration enhancement). Particulars: 37° C.; for AUC / Drug 2 Concentration: MFDS. The class given is physicochemical. Here is the method: The concentration-enhancement provided by Example 2, Control 2B and Control 2C was determined using an in vitro dissolution test as follows. Samples containing 3.91 mg of Example 2, 0.36 mg of Control 2B, or 3.9 mg of Control 2C, were separately added to microcentrifuge tubes. The tubes were placed in a 37° C. temperature-controlled chamber, and 1.8 mL MFDS solution was added. The contents of the tubes were quickly mixed using a vortex mixer for about 60 seconds. The tubes were then centrifuged at 13,000 G at 37° C. for 1 minute. The supernatant was sampled and diluted 1:6 (by volume) with methanol and then analyzed by high-performance liquid chromatography (HPLC). Drug 2 was analyzed by HPLC using a Phenomenex ODS 20 column (250 mm×4.6mm). The mobile phase consisted of 0.02 M KH2PO4 (pH 3)/acetonitrile in a volume ratio of 60/40. Drug concentration was calculated by comparing UV absorbance at 254 nm to the absorbance of Drug 2 standards. The contents of the tubes were then again mixed on the vortex mixer and the next sample was taken. […]

Series [4] in a line: In vivo test of Drug 2 compositions, gelatin capsule, plasma Drug 2. Particulars: fasted male beagle dogs, one gelatin capsule, 40 mg Drug 2, plasma. Here is the method: The composition of Example 2 was placed in a gelatin capsule such that the capsule contained 40 mg of Drug 2. Five fasted male beagle dogs were dosed with one capsule and whole blood samples of 6 ml were taken from the jugular vein using a plasma vacutainer containing sodium heparin with a 20 gauge needle at 0, ½, 1, 1½, 2, 3, 4, 6, 8, 12, and 24 hours post dosing. Samples were spun in a refrigerated (5° C.) centrifuge at 3000 rpm for 5 minutes. Resultant plasma samples were poured into 2 ml cryogenic plastic tubes and were stored in a freezer (−20° C.) within ½ hour post sampling time. Similar tests were performed with a gelatin capsule containing 40 mg of crystalline Drug 2 (Control 2B).

Take `NC(=O)N(O)C1C=C(c2cccc(Oc3ccc(F)cc3)c2)CC1` (single isomer, unassigned; (+)) [Control 1C, (+)-N-{3-[3-(4-fluorophenoxy)phenyl]-2-cyclopenten-1-yl}-N-hydroxyurea]: in series [1], the AUC90 amounted to 2200 µg·min/mL. Besides, the Cmax9O in series [1] was 32000 ng/mL. Besides, the AUC in series [1] (time 0 min) was 0 µg·min/mL; in series [1] (time 4 min), 0 µg·min/mL; in series [1] (time 10 min), 100 µg·min/mL; in series [1] (time 20 min), 300 µg·min/mL; in series [1] (time 40 min) it was 800 µg·min/mL; in series [1] (time 90 min), 2,200 min*μg/mL. The AUC in series [1] (time 1200 min) was 43,300 min*μg/mL. The “Drug 1 Concentration” value worked out at 0 µg/mL in series [1] (time 0 min); 9 µg/mL in series [1] (time 4 min); 15 µg/mL in series [1] (time 10 min); 21 µg/mL in series [1] (time 20 min); 27 µg/mL in series [1] (time 40 min); 32 µg/mL in series [1] (time 90 min). The “Drug 1 Concentration” value in series [1] (time 1200 min) came out at 42 µg/mL. The Cmax in series [2] is on record as 1,650 ng/ml. Also, in series [2] (male, beagle, dog, plasma, po, 10 mgA/kg, read-out: AUC(0-inf)), the AUC(0-inf) was found to be 11100 ng·h/mL.
Regarding `O=C1Cc2cc(CCN3CCN(c4nsc5ccccc45)CC3)c(Cl)cc2N1` [Control 2B], in series [3] (Drug 2, MFDS, first 90 min), the AUC90 was 1,600 min * μg/mL. Besides, the Cmax90 in series [3] (Drug 2, MFDS, first 90 min) was 23000 ng/mL. In addition, the AUC in series [3] (time 4 min) is 0 µg·min/mL; in series [3] (time 10 min) it was 100 µg·min/mL; in series [3] (time 20 min), 300 µg·min/mL; in series [3] (time 40 min) it was 700 µg·min/mL; in series [3] (time 90 min), 1,600 min*μg/mL; in series [3] (time 1200 min) it was 14,900 min*μg/mL. Also, the “Drug 2 Concentration” value worked out at 14 µg/mL in series [3] (time 4 min); 17 µg/mL in series [3] (time 10 min); 23 µg/mL in series [3] (time 20 min); 19 µg/mL in series [3] (time 40 min); 15 µg/mL in series [3] (time 90 min); 9 µg/mL in series [3] (time 1200 min). Moreover, the AUC(0-inf) in series [4] came to 1050 ng·h/mL. In addition, the Cmax in series [4] came to 196 ng/mL.
As to `NC(=O)N(O)C1C=C(c2cccc(Oc3ccc(F)cc3)c2)CC1` (single isomer, unassigned; (+)) [Control 1D, (+)-N-{3-[3-(4-fluorophenoxy)phenyl]-2-cyclopenten-1-yl}-N-hydroxyurea], the AUC90 in series [1] is 5600 µg·min/mL. Besides, the Cmax9O in series [1] worked out at 70000 ng/mL. The exposure (AUC) in series [1] (time 0 min) is 0 µg·min/mL; in series [1] (time 4 min), 100 µg·min/mL; in series [1] (time 10 min), 400 µg·min/mL; in series [1] (time 20 min), 1,000 min*μg/mL; in series [1] (time 40 min), 2,300 min*μg/mL; in series [1] (time 90 min), 5,600 min*μg/mL. Also, the AUC in series [1] (time 1200 min) is given as 77,800 min*μg/mL. For the same molecule, the “Drug 1 Concentration” value in series [1] (time 0 min) is 0 µg/mL; in series [1] (time 4 min) it was 50 µg/mL; in series [1] (time 10 min) it was 58 µg/mL; in series [1] (time 20 min), 61 µg/mL; in series [1] (time 40 min) it was 64 µg/mL; in series [1] (time 90 min), 70 µg/mL. Also, the “Drug 1 Concentration” value in series [1] (time 1200 min) is 60 µg/mL. Further, the “AUC(0-inf)” value in series [2] was 20,700 ng/ml * hr. Also, in series [2], the Cmax was 3,622 ng/ml.

Values taken from patent publication US8257739B2, “Pharmaceutical compositions of semi-ordered drugs and polymers” (Bend Research, Inc., priority 2002, dated 2012).
